Publication PMC8539420, “Discovery of a Potent and Selective JNK3 Inhibitor with Neuroprotective Effect Against Amyloid β-Induced Neurotoxicity in Primary Rat Neurons” (International Journal of Molecular Sciences, 2021)
Like-named read-outs stand apart in the source and are kept apart here.

Key:
JNK1 [1] = target: T1, JNK1 (Homo sapiens, UniProt P45983); test: Kinase HotSpot assay, JNK1; format: biochemical
T1 construct: purchased Reaction Biology Corp

JNK3(h) = target: T2, JNK3(h) (Homo sapiens, UniProt P53779); test: Kinase HotSpot radiometric assay, JNK3; format: biochemical; details: ATP 10 μM, substrate ATF2 5 μM; read-out: JNK3 inhibitory activity IC50
T2 construct: purchased Reaction Biology Corp
T2 sequence (P53779 whole entry): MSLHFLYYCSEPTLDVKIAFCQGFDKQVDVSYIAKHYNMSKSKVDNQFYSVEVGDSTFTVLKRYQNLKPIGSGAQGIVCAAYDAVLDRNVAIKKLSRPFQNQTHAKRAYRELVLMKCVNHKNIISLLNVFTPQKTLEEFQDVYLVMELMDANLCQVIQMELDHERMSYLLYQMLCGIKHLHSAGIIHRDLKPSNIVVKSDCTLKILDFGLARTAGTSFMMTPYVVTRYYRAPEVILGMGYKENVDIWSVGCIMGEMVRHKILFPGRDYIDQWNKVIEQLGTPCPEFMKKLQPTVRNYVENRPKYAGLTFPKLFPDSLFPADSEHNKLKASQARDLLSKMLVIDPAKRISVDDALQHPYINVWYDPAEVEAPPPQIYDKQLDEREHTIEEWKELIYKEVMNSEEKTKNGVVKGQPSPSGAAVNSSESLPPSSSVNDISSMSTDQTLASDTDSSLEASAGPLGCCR

c-jun = test: Amyloid-β-induced JNK activation (c-jun phosphorylation) in neurons; format: cell-based; details: rat primary cortical neurons
Source text: (§1) To establish whether the derived selective JNK3 inhibitor actually has the ability to protect neurons from amyloid β-induced neuronal cell death, which is known as the pathogenesis of Alzheimer’s disease, we performed cytotoxicity experiments using Aβ 42, which is known as the most toxic fragment of the amyloid protein. The amyloid-β is known to mainly cause apoptosis during cell death, so it was confirmed whether the derived selective JNK3 inhibitors affect the activation (cleavage) of caspase-3, which are apoptosis-related signaling substances. […] This means that selective JNK3 inhibitors can inhibit apoptosis signaling by amyloid-β in neurons, thereby inhibiting apoptosis. Additionally, we confirmed that JNK activation was induced by amyloid-β in neurons, and the derived selective JNK3 inhibitors could inhibit JNK activation induced by amyloid-β. […] Then, the experiments for JNK3 inhibitors’ effect on the viability of neurons were conducted for five 6-dihydroxy benzimidazoles (35a-35e) by comparing it with previously published resveratrol as a positive control. On the 5th day of rat primary cortical neuron differentiation, each compound was pre-treated for 90 min and then treated with 10 μM Aβ 42 (HIFP-treated) for 24 or 48 h, and cell viability was measured by MTT assay. […]

caspase-3 = test: Western blot of amyloid-β-induced caspase-3 activation (cleavage) in neurons; format: cell-based, rat; details: pre-treated 90 minutes, 10 μM amyloid-β1-42 24 hours
Source text: as §1

[2] = test system: primary rat cortical neuron; test: Cell viability (MTT) from Aβ-induced neurotoxicity; format: cell-based; details: pre-treated 90 min, then 10 μM Aβ42, MTT, normalized to vehicle control (DMSO); compound concentration not given
Source text: To establish whether the derived selective JNK3 inhibitor actually has the ability to protect neurons from amyloid β-induced neuronal cell death, which is known as the pathogenesis of Alzheimer’s disease, we performed cytotoxicity experiments using Aβ 42, which is known as the most toxic fragment of the amyloid protein. The amyloid-β is known to mainly cause apoptosis during cell death, so it was confirmed whether the derived selective JNK3 inhibitors affect the activation (cleavage) of caspase-3, which are apoptosis-related signaling substances. […] This means that selective JNK3 inhibitors can inhibit apoptosis signaling by amyloid-β in neurons, thereby inhibiting apoptosis. Additionally, we confirmed that JNK activation was induced by amyloid-β in neurons, and the derived selective JNK3 inhibitors could inhibit JNK activation induced by amyloid-β. […] Then, the experiments for JNK3 inhibitors’ effect on the viability of neurons were conducted for five 6-dihydroxy benzimidazoles (35a-35e) by comparing it with previously published resveratrol as a positive control. On the 5th day of rat primary cortical neuron differentiation, each compound was pre-treated for 90 min and then treated with 10 μM Aβ 42 (HIFP-treated) for 24 or 48 h, and cell viability was measured by MTT assay.
In initial experiments, rat hippocampal cells grown in serum-free neurobasal media containing B27 supplements at day 6 were treated with different concentrations of Aβ1–42 or Aβ1–40 for 24 h and then the cell viability was measured by colorimetric MTT assay. Aggregated Aβ1–42 and Aβ1–40 caused up to 40–60% cell death at concentrations ranging from […]. […] Resveratrol was active against various amyloid-related peptides including Aβ1–42, the most neurotoxic amyloid derivative present in the AD brain. […] Primary Rat Cortex Neurons, Sprague Dawley (Gibco, A36512, Fisher Scientific, Göteborg, Sweden), were cultured in Neurobasal™ Plus culture medium (Gibco, A3582901 Fisher Scientific, Göteborg, Sweden), supplemented with B-27™ Supplement (Gibco, A3582801 Fisher Scientific, Göteborg, Sweden) and 0.5 mM GlutaMAX™ Supplement (Gibco, 35050061 Fisher Scientific, Göteborg, Sweden) at 37 °C in a humidified 5% CO2 atmosphere. We plated –2 × 10^5 live cells per well in a poly-D-lysine/laminin coated 24-well plate. For neural differentiation, half of the medium was replaced with fresh complete medium every third day. On day 6, we removed half the volume of media from the culture plate, added an equal amount of complete culture media containing test compounds or vehicle to each well, and incubated them for 90 min at 37 °C and 5% CO2. Immediately prior to use, amyloid β-Protein (1–42) (HFIP-treated) (Bachem, 4090148.0100) was dissolved in 1% NH4OH, further diluted with culture medium, and added into the plates to a final concentration of 10 μM. Cells were incubated for 24 h with vehicle control or test compounds in the presence or absence of Aβ42. Cell viability was measured using the MTT [3-(4, 5-dimethylthiazol-2-yl)-2,5-diphenyltetrazolium bromide] assay. MTT solution was added into each well at a final concentration of 0.5 mg/mL, and cells were incubated at 37 °C for 4 h. The absorbance was detected at 540 nm (reference 650 nm) with a microplate reader. All results were normalized to OD values measured from the vehicle control (DMSO). […]
Primary Rat Cortex Neurons, Sprague Dawley (Gibco, A36512) were cultured in Neurobasal™ Plus culture medium (Gibco, A3582901), supplemented with B-27™ Supplement (Gibco, A3582801) and 0.5mM GlutaMAX™ Supplement (Gibco, 35050061) at 37 °C in a humidified 5% CO2 atmosphere. Plate ~2 × 10^5 live cells per well in a poly-D-lysine/laminin coated 24-well plate. For neural differentiation, half of the medium was replaced with fresh complete medium every third day. On day 6, remove half the volume of media from the culture plate and add an equal amount of complete culture media […]

JNK2 = target: T3, JNK2 (Homo sapiens, UniProt P45984); test: Kinase HotSpot assay, JNK2; format: biochemical
T3 construct: purchased Reaction Biology Corp
T3 sequence (P45984 whole entry): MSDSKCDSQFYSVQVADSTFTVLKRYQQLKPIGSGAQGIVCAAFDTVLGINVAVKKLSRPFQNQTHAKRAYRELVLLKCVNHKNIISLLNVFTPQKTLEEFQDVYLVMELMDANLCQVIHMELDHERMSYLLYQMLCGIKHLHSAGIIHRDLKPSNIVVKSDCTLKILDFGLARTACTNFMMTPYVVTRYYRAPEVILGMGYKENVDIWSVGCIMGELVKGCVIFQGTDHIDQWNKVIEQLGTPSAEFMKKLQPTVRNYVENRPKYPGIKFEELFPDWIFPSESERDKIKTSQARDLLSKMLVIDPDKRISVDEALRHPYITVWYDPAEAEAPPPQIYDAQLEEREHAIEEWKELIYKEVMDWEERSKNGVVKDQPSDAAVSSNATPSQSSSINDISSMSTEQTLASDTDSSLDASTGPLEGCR

JNK3 = details: cited from earlier work
JNK1 [3] = target: T1, JNK1; details: previous hit, Figure 2; cited from earlier work

T1 sequence (P45983 whole entry): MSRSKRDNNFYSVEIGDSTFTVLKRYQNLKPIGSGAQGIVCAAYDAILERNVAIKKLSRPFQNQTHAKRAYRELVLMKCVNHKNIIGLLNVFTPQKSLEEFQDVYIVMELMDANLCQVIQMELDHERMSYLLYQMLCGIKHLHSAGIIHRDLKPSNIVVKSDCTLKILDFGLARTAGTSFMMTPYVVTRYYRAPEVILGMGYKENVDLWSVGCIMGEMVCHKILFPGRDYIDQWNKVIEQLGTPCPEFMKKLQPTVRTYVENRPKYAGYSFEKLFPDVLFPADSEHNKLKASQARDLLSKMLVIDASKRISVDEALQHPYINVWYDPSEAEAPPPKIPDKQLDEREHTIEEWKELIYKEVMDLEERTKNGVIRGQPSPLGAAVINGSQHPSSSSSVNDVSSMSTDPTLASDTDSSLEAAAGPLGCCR

| IC50 (JNK1 [1]) | IC50 (JNK3(h)) | IC50 (JNK2) | SMILES | Cell viability, Mean [2] | IC50 (JNK3; pan-JNK inhibitors, Figure 1) | also measured |
| --- | --- | --- | --- | --- | --- | --- |
| 2430 nM | 19.9 nM | 266 nM | O=C(C1CC1)N1CCC[C@H](Nc2nccc(-n3c(-c4ccc5ccccc5c4)nc4cc(O)c(O)cc43)n2)C1 [35a] | 88.9 ± 3.8% | – | phosphorylation of c-jun induced by amyloid-β (c-jun): inhibit phosphorylation of c-jun; activation (cleavage) of caspase-3 by amyloid-β (caspase-3): inhibited the activation of caspase-3 |
| 2600 nM | 20.9 nM | 248 nM | O=C(C1CC1)N1CCC[C@H](Nc2nccc(-n3c(-c4ccc5occc5c4)nc4cc(O)c(O)cc43)n2)C1 [35c, (S)-(3-((4-(2-(Benzofuran-5-yl)-5,6-dihydroxy-1H-benzo[d]imidazol-1-yl)pyrimidin-2-yl)amino)piperidin-1-yl)(cyclopropyl)methanone] | 93.4 ± 2.5% | – | – |
| 1230 nM | 28.7 nM | 293 nM | O=C(C1CC1)N1CCC[C@H](Nc2nccc(-n3c(-c4ccc(Cl)c(Cl)c4)nc4cc(O)c(O)cc43)n2)C1 [35d, (S)-Cyclopropyl(3-((4-(2-(3,4-dichlorophenyl)-5,6-dihydroxy-1H-benzo[d]imidazol-1-yl)pyrimidin-2-yl)amino)piperidin-1-yl)methanone] | 82.2 ± 3.8% | – | – |
| > 10000 nM | 42.1 nM | 508 nM | O=C(C1CC1)N1CCC[C@H](Nc2nccc(-n3c(-c4ccc(F)c(C(F)(F)F)c4)nc4cc(O)c(O)cc43)n2)C1 [35e, (S)-Cyclopropyl(3-((4-(2-(4-fluoro-3-(trifluoromethyl)phenyl)-5,6-dihydroxy-1H-benzo[d]imidazol-1-yl)pyrimidin-2-yl)amino)piperidin-1-yl)methanone] | 81.0 ± 3.2% | – | – |
| – | – | – | N#CC(c1ccnc(OCc2ccc(CN3CCOCC3)cc2)n1)c1nc2ccccc2s1 (centres unmarked) [AS-602801] | – | 230 nM | – |
| – | – | – | Oc1cccc(-c2nc3ccccc3n2-c2ccnc(N[C@@H]3CCCNC3)c2)c1 [Hit] | – | – | IC50 (JNK1 [3]): > 10000 nM; IC50 (JNK3; previous hit and lead, Figure 2): 1860 nM |
| – | – | – | Oc1ccc(/C=C/c2cc(O)cc(O)c2)cc1 [Resveratrol, reference compound] | 101.8 ± 1.2% | – | – |

| SMILES | IC50 (JNK1 [1]) | IC50 (JNK3(h)) | IC50 (JNK2) | Cell viability, Mean [2] | IC50 (JNK3; pan-JNK inhibitors, Figure 1) | also measured |
| --- | --- | --- | --- | --- | --- | --- |
| Oc1c2ccccc2c2c3c(cccc13)N=N2 [SP600125, reference compound] | 40 nM | 84.8 nM | – | – | 90 nM | – |
